Assays:
Format in all cases: biochemical
BTK = BTK (Homo sapiens (Human), UniProt Q06187); assay: IC50 against BTK
ITK = ITK (Homo sapiens (Human), UniProt Q08881); assay: IC50 against ITK
JAK3 = JAK3 (Homo sapiens (Human), UniProt P52333); assay: IC50 against JAK3
TXK = TXK (Homo sapiens (Human), UniProt P42681); assay: IC50 against TXK; settings: for TXK/ITK: ratio of TXK IC50 to ITK IC50
TXK, sequence (P42681 whole entry, species assumed): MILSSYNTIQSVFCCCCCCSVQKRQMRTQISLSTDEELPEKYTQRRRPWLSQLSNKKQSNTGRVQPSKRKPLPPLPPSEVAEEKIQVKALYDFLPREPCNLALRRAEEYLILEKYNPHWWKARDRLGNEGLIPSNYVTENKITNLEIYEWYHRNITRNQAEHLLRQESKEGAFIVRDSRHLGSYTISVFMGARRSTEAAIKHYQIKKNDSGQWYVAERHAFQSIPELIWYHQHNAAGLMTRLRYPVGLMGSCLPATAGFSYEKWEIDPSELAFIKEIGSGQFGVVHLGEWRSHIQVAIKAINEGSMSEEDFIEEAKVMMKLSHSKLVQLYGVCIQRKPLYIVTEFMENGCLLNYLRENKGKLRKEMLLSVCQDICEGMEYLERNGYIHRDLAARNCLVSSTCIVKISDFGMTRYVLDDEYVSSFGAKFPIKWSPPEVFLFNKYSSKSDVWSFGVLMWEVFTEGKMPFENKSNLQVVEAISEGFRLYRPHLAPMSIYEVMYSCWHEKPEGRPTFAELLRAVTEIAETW

BTK, sequence (Q06187 whole entry, species assumed): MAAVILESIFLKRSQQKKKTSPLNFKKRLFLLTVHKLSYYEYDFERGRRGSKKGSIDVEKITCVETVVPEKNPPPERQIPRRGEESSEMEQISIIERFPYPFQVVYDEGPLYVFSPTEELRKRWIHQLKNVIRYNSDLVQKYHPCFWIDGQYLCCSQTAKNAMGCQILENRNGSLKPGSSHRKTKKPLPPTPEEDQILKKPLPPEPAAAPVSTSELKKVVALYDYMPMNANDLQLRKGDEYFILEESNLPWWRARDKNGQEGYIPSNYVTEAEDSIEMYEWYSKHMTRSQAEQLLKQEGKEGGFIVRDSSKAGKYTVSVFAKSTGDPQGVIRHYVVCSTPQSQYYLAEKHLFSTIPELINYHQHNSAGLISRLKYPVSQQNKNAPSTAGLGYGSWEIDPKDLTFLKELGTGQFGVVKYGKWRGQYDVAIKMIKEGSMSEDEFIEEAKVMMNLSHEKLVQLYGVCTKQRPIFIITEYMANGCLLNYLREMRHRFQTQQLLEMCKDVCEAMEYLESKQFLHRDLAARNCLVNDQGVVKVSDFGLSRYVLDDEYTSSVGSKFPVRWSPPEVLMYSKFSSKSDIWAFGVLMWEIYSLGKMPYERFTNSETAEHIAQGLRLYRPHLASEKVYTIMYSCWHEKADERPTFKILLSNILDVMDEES
ITK, sequence (Q08881 whole entry): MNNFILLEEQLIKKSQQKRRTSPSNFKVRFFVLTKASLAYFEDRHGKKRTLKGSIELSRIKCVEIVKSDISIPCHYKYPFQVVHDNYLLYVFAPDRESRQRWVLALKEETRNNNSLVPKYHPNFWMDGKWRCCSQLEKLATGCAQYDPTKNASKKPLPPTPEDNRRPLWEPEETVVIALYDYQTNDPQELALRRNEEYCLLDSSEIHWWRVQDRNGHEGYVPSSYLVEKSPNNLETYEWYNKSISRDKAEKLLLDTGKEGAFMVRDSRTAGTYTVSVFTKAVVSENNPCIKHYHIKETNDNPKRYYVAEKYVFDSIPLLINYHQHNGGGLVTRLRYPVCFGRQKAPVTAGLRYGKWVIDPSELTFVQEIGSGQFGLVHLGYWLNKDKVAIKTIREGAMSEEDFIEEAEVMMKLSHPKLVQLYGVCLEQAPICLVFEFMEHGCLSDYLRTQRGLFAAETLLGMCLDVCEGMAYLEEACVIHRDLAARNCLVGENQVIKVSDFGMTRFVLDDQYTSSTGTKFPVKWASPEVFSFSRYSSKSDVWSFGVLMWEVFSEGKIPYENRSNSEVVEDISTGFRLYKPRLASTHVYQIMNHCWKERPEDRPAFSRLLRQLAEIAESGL
JAK3, sequence (P52333 whole entry, species assumed): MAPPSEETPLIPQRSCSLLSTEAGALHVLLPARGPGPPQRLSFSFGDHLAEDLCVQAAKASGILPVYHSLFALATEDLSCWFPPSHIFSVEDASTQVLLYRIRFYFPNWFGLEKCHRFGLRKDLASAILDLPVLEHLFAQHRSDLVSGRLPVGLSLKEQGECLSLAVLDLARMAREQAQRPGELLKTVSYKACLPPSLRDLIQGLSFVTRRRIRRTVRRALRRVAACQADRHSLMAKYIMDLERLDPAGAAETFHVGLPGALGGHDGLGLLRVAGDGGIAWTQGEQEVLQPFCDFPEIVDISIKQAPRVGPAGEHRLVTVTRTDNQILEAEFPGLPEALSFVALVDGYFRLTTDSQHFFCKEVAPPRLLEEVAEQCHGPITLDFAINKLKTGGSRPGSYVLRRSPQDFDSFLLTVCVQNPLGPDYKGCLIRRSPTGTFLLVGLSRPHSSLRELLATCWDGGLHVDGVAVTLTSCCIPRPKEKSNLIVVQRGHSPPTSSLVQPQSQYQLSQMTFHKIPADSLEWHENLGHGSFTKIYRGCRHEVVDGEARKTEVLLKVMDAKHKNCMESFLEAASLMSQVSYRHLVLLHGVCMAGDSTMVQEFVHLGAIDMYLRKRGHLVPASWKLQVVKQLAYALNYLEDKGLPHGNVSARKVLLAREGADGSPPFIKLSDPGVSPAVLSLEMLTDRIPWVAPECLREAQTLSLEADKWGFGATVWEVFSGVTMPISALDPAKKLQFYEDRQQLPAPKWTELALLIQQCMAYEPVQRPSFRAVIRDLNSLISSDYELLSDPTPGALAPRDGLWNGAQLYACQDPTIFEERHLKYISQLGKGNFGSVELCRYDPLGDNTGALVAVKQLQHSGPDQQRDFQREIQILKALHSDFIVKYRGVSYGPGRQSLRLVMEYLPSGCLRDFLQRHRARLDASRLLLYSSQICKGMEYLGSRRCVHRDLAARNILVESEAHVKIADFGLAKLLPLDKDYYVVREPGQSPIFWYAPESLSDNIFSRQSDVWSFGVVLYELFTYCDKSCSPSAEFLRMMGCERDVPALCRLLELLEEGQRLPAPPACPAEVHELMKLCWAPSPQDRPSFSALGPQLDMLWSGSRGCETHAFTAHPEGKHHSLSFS

Row | SMILES | IC50 (BTK) | IC50 (ITK) | IC50 (JAK3) | IC50 (TXK) | TXK/ITK (TXK)
1 | COc1cc(C)c(Sc2cnc(NC(=O)C3CC3)s2)cc1C(=O)N1CCN(C(=O)/C=C/CN(C)C)CC1 [Compound 3] | 1000 to 10000 nM | 10 to 100 nM | ≥ 10000 nM | 100 to 1000 nM | 5.162
2 | C=CC(=O)N1CCN(C(=O)c2cccc(Cc3cnc(NC(=O)C4CC4)s3)c2)CC1 [Compound 4] | 100 to 1000 nM | 10 to 100 nM | 100 to 1000 nM | 10 to 100 nM | 0.3296
3 | C=CC(=O)N1C[C@H]2CC[C@@H](C1)N2C(=O)c1cc(Sc2cnc(NC(C)=O)s2)c(C)cc1OC [Compound 7] | 10 to 100 nM | < 10 nM | 10 to 100 nM | 10 to 100 nM | 11.993
4 | C=CC(=O)N1[C@@H]2CC[C@H]1CN(C(=O)c1cc(Sc3cnc(NC(C)=O)s3)c(C)cc1OC)C2 [Compound 8] | 10 to 100 nM | < 10 nM | 100 to 1000 nM | 10 to 100 nM | 11.265
5 | C=C(CN(C)C)C(=O)N1CCN(C(=O)c2cc(Sc3cnc(NC(=O)C4CC4)s3)c(C)cc2OC)CC1 [Compound 13] | 1000 to 10000 nM | 10 to 100 nM | 1000 to 10000 nM | 100 to 1000 nM | 22.987
6 | C=CC(=O)N1CCN(C(=O)c2cc(Sc3cnc(NC(=O)c4cccc(CN(C)C)c4)s3)c(C)cc2OC)CC1 [Compound 14] | 100 to 1000 nM | < 10 nM | 1000 to 10000 nM | 100 to 1000 nM | 79.163
7 | C=CC(=O)N1C[C@H]2CC[C@@H](C1)N2C(=O)c1cc(Sc2cnc(NC(=O)C3CC3)s2)c(C)cc1OC [Compound 17] | < 10 nM | < 10 nM | 10 to 100 nM | < 10 nM | 5.4235
8 | C=CC(=O)N1[C@@H]2CC[C@H]1CN(C(=O)c1cc(Sc3cnc(NC(=O)C4CC4)s3)c(C)cc1OC)C2 [Compound 18] | 10 to 100 nM | < 10 nM | 10 to 100 nM | < 10 nM | 2.8993
9 | C=CC(=O)N1C[C@@H]2C[C@H]1CN2C(=O)c1cc(Sc2cnc(NC(=O)C3CC3)s2)c(C)cc1OC [Compound 23] | < 10 nM | < 10 nM | 10 to 100 nM | < 10 nM | 1.4139
10 | C=CC(=O)N1CCCN(C(=O)c2cc(Sc3cnc(NC(=O)C4CC4)s3)c(C)cc2OC)CC1 [Compound 25] | 100 to 1000 nM | < 10 nM | 100 to 1000 nM | 10 to 100 nM | 20.879
11 | C=CC(=O)N1CC[C@@H](N(C)C(=O)c2cc(Sc3cnc(NC(=O)C4CC4)s3)c(C)cc2OC)C1 [Compound 27] | < 10 nM | < 10 nM | < 10 nM | < 10 nM | 2.0165
12 | C=CC(=O)N1CC[C@H](N(C)C(=O)c2cc(Sc3cnc(NC(=O)C4CC4)s3)c(C)cc2OC)C1 [Compound 29] | 100 to 1000 nM | < 10 nM | 100 to 1000 nM | < 10 nM | 2.1804
13 | C=CC(=O)N1CCN(C(=O)c2cc(Sc3cnc(NC(=O)C4CCCC4)s3)c(C)cc2OC)CC1 [Compound 31] | 1000 to 10000 nM | 10 to 100 nM | 1000 to 10000 nM | 100 to 1000 nM | 19.291
14 | C=CC(=O)N1CCN(C(=O)c2cc(Sc3cnc(NC(=O)c4ccc(CN(C)C)cc4)s3)c(C)cc2OC)CC1 [Compound 34] | 10 to 100 nM | < 10 nM | 100 to 1000 nM | 10 to 100 nM | 33.121
15 | C=CC(=O)N1CCCN(C(=O)c2cc(Sc3cnc(NC(=O)C4CCN(C)CC4)s3)c(C)cc2OC)CC1 [Compound 37] | ≥ 10000 nM | 100 to 1000 nM | ≥ 10000 nM | ≥ 10000 nM | 46.119
16 | CC#CC(=O)N1CCCN(C(=O)c2cc(Sc3cnc(NC(=O)c4cccc(CN(C)C)c4)s3)c(C)cc2OC)CC1 [Compound 38] | 1000 to 10000 nM | 10 to 100 nM | ≥ 10000 nM | 1000 to 10000 nM | 28.189
17 | C=C(C)C(=O)N1CCCN(C(=O)c2cc(Sc3cnc(NC(=O)c4cccc(CN(C)C)c4)s3)c(C)cc2OC)CC1 [Compound 39] | ≥ 10000 nM | 100 to 1000 nM | ≥ 10000 nM | 1000 to 10000 nM | 1.5
18 | C=CC(=O)N1CCN(C(=O)c2cc(Sc3cnc(NC(=O)c4ccc(N5CCN(C(=O)OC(C)(C)C)CC5)cc4)s3)c(C)cc2OC)CC1 [Compound 40] | 100 to 1000 nM | < 10 nM | 100 to 1000 nM | 10 to 100 nM | 14.491
19 | C=CC(=O)N1C[C@H]2CN(C(=O)c3cc(Sc4cnc(NC(=O)C5CC5)s4)c(C)cc3OC)C[C@H]21 [Compound 52] |  | < 10 nM | 1000 to 10000 nM | 10 to 100 nM | 

The remaining lines, values ahead:

Row | IC50 (BTK) | IC50 (ITK) | IC50 (JAK3) | IC50 (TXK) | TXK/ITK (TXK) | SMILES
20 | 100 to 1000 nM | < 10 nM | 100 to 1000 nM | 100 to 1000 nM | 19.869 | C=CC(=O)N1CCN(C(=O)c2cc(Sc3cnc(NC(C)=O)s3)c(C)cc2OC)CC1 [Compound 2]
21 | 10 to 100 nM | < 10 nM | 100 to 1000 nM | < 10 nM | 1.9721 | C=CC(=O)N1CCN(C(=O)c2cc(Sc3cnc(NC(C)=O)s3)c(C)cc2OC)C(C)(C)C1 [Compound 5]
22 | 1000 to 10000 nM | 10 to 100 nM | 1000 to 10000 nM | 100 to 1000 nM | 5.9566 | C=CC(=O)N1CCN(C(=O)c2cc(Sc3cnc(NC(C)=O)s3)c(C)cc2OC)CC1(C)C [Compound 6]
23 | 100 to 1000 nM | < 10 nM | 100 to 1000 nM | 10 to 100 nM | 14.236 | C=CC(=O)N1CCN(C(=O)c2cc(Sc3cnc(NC(C)=O)s3)c(C)cc2OC)[C@@H](C)C1 [Compound 9]
24 | 100 to 1000 nM | 10 to 100 nM | 1000 to 10000 nM | 100 to 1000 nM | 8.0758 | C=CC(=O)N1CCN(C(=O)c2cc(Sc3cnc(NC(C)=O)s3)c(C)cc2OC)[C@H](C)C1 [Compound 10]
25 | 1000 to 10000 nM | < 10 nM | 1000 to 10000 nM | 100 to 1000 nM | 25.051 | C=CC(=O)N1CCN(C(=O)c2cc(Sc3cnc(NC(C)=O)s3)c(C)cc2OC)C[C@H]1C [Compound 11]
26 | 100 to 1000 nM | 10 to 100 nM | 100 to 1000 nM | 100 to 1000 nM | 14.784 | C=CC(=O)N1CCN(C(=O)c2cc(Sc3cnc(NC(C)=O)s3)c(C)cc2OC)C[C@@H]1C [Compound 12]
27 | < 10 nM | < 10 nM | 10 to 100 nM | < 10 nM | 1.1111 | C=CC(=O)N1CCN(C(=O)c2cc(Sc3cnc(NC(=O)C4CC4)s3)c(C)cc2OC)C(C)(C)C1 [Compound 15]
28 | 100 to 1000 nM | 10 to 100 nM | 100 to 1000 nM | 10 to 100 nM | 4.9287 | C=CC(=O)N1CCN(C(=O)c2cc(Sc3cnc(NC(=O)C4CC4)s3)c(C)cc2OC)CC1(C)C [Compound 16]
29 | 10 to 100 nM | < 10 nM | 100 to 1000 nM | < 10 nM | 6.5873 | C=CC(=O)N1CCN(C(=O)c2cc(Sc3cnc(NC(=O)C4CC4)s3)c(C)cc2OC)[C@@H](C)C1 [Compound 19]
30 | 100 to 1000 nM | < 10 nM | 100 to 1000 nM | 10 to 100 nM | 2.2433 | C=CC(=O)N1CCN(C(=O)c2cc(Sc3cnc(NC(=O)C4CC4)s3)c(C)cc2OC)[C@H](C)C1 [Compound 20]
31 | 100 to 1000 nM | < 10 nM | 100 to 1000 nM | 10 to 100 nM | 6.7674 | C=CC(=O)N1CCN(C(=O)c2cc(Sc3cnc(NC(=O)C4CC4)s3)c(C)cc2OC)C[C@@H]1C [Compound 22]
32 | 10 to 100 nM | < 10 nM | 100 to 1000 nM | 10 to 100 nM | 6.6876 | C=CC(=O)N1C[C@@H]2C[C@H]1CN2C(=O)c1cc(Sc2cnc(NC(C)=O)s2)c(C)cc1OC [Compound 24]
33 | 1000 to 10000 nM | 10 to 100 nM | 1000 to 10000 nM | 100 to 1000 nM | 26.486 | C=CC(=O)N1CCCN(C(=O)c2cc(Sc3cnc(NC(C)=O)s3)c(C)cc2OC)CC1 [Compound 26]
34 | < 10 nM | < 10 nM | 10 to 100 nM | 10 to 100 nM | 5.5925 | C=CC(=O)N1CC[C@@H](N(C)C(=O)c2cc(Sc3cnc(NC(C)=O)s3)c(C)cc2OC)C1 [Compound 28]
35 | 100 to 1000 nM | 10 to 100 nM | 1000 to 10000 nM | 10 to 100 nM | 3.101 | C=CC(=O)N1CC[C@H](N(C)C(=O)c2cc(Sc3cnc(NC(C)=O)s3)c(C)cc2OC)C1 [Compound 30]
36 | 100 to 1000 nM | < 10 nM | 1000 to 10000 nM | 100 to 1000 nM | 81.114 | C=CC(=O)N1CCN(C(=O)c2cc(Sc3cnc(NC(=O)c4cccc(CN(C)C)c4)s3)c(C)cc2OC)C[C@H]1C [Compound 32]
37 | ≥ 10000 nM | 100 to 1000 nM | ≥ 10000 nM | ≥ 10000 nM | 48.433 | C=CC(=O)N1CCCN(C(=O)c2cc(Sc3cnc(NC(=O)CN(C)C)s3)c(C)cc2OC)CC1 [Compound 35]
38 | 1000 to 10000 nM | 10 to 100 nM | ≥ 10000 nM | 1000 to 10000 nM | 72.34 | C=CC(=O)N1CCCN(C(=O)c2cc(Sc3cnc(NC(=O)C(C)C)s3)c(C)cc2OC)CC1 [Compound 36]
39 | 1000 to 10000 nM |  | 1000 to 10000 nM | 100 to 1000 nM |  | C=CC(=O)N1CCCN(C(=O)c2cc(Sc3cnc(NC(=O)C4CC4)s3)c(C)cc2OC)C[C@@H]1C [Compound 71]
40 |  | < 10 nM | 100 to 1000 nM | 10 to 100 nM |  | C=CC(=O)N1CCN(C(=O)c2cc(Sc3cnc(NC(=O)C4CC4)s3)c(C)cc2C)C[C@H]1C [Compound 75]

— patent US11008314B2, “Compounds and methods for modulating interleukin-2-inducible t-cell kinase” (CORVUS PHARMACEUTICALS, INC., priority 2016, dated 2021)
